Where two headings read alike, the source gives them in different places.
How the values were obtained:
Assay in all cases: Further analysis of a plurality of inhibitors and a plurality of kinases (Table 5 inhibition results)
Type in all cases: biochemical
Design in all cases: scale not given here
kinases of Table 5 [1] = target: kinases of Table 5 (Homo sapiens, UniProt P06241)
Description: (§1) The wash solution is then discarded.

kinases of Table 5 [2] = target: kinases of Table 5 (Homo sapiens, UniProt P68400); conditions: for Inhibition Results (Level): kinase CSNK2A1 (Part II, plate D9, Domain 0)
Chain of kinases of Table 5 (Homo sapiens, UniProt P68400) (P68400 whole entry): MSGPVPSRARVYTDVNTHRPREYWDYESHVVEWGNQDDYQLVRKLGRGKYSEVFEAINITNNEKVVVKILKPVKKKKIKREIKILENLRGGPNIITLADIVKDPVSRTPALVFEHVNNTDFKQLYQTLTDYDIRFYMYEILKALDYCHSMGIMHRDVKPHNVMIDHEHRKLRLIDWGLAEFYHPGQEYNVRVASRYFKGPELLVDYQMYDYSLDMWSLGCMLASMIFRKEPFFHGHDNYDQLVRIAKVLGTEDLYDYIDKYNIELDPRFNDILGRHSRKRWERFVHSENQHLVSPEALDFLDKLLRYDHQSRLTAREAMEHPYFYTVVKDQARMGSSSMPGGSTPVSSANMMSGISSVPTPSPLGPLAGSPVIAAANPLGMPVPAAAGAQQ
Description: as §1

kinases of Table 5 [3] = target: kinases of Table 5 (Homo sapiens, UniProt P07949); conditions: for Inhibition level: kinase RET; for Inhibition Results (Level): kinase RET (Part II, plate B7, Domain 1)
Chain of kinases of Table 5 (Homo sapiens, UniProt P07949) (P07949 29-1114): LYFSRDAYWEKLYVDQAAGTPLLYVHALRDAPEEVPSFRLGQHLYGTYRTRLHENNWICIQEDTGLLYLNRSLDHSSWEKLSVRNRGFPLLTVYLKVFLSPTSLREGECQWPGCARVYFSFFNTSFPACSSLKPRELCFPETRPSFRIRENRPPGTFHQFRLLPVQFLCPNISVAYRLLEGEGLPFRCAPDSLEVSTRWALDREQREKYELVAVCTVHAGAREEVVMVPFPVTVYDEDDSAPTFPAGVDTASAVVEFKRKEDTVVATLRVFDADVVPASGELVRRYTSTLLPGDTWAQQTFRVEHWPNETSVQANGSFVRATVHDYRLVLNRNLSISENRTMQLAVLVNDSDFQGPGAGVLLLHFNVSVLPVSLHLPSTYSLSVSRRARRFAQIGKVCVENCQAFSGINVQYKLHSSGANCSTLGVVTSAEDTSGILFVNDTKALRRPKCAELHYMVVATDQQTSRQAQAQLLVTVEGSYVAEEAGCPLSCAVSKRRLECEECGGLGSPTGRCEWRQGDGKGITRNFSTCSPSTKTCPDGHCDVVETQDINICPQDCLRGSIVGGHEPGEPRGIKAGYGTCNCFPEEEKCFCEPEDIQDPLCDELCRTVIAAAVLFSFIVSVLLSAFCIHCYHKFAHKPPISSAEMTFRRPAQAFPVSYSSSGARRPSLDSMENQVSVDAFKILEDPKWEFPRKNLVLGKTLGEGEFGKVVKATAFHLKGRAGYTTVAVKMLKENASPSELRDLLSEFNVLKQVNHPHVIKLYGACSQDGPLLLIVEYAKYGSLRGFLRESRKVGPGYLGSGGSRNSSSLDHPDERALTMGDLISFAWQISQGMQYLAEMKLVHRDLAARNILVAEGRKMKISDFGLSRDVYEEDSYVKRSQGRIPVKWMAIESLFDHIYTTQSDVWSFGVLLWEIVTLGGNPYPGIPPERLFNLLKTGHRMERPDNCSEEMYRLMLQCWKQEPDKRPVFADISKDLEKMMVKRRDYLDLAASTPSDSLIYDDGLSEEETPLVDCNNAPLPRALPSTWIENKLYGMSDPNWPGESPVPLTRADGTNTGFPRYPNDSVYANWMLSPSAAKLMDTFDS
Description: as §1

kinases of Table 5 [4] = target: T1, kinases of Table 5 (Homo sapiens, UniProt O43318); conditions: kinase MAP3K7 (Part I, plate G9, Domain 0)
T1 sequence (O43318 1-606): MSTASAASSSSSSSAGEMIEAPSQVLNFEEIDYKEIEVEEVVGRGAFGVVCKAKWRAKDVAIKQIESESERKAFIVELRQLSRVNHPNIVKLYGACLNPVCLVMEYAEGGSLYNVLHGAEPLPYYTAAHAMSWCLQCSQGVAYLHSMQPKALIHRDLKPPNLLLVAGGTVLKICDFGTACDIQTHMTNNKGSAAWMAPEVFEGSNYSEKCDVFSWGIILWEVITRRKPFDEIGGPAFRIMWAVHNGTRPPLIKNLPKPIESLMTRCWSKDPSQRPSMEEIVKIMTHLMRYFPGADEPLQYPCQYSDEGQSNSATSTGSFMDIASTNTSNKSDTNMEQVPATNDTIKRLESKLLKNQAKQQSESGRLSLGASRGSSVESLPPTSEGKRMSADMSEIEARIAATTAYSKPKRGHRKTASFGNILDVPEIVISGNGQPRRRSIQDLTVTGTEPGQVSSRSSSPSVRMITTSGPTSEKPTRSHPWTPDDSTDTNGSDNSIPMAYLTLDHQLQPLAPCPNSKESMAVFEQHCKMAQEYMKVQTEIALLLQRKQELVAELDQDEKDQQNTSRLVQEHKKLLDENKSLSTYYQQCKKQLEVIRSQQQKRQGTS
Description: as §1

kinases of Table 5 [5] = target: kinases of Table 5 (Homo sapiens, UniProt Q05655); conditions: for Inhibition level: kinase PRKCD; for Inhibition Results (Level): kinase PRKCD (Part II, plate B2, Domain 0)
Chain of kinases of Table 5 (Homo sapiens, UniProt Q05655) (Q05655 whole entry): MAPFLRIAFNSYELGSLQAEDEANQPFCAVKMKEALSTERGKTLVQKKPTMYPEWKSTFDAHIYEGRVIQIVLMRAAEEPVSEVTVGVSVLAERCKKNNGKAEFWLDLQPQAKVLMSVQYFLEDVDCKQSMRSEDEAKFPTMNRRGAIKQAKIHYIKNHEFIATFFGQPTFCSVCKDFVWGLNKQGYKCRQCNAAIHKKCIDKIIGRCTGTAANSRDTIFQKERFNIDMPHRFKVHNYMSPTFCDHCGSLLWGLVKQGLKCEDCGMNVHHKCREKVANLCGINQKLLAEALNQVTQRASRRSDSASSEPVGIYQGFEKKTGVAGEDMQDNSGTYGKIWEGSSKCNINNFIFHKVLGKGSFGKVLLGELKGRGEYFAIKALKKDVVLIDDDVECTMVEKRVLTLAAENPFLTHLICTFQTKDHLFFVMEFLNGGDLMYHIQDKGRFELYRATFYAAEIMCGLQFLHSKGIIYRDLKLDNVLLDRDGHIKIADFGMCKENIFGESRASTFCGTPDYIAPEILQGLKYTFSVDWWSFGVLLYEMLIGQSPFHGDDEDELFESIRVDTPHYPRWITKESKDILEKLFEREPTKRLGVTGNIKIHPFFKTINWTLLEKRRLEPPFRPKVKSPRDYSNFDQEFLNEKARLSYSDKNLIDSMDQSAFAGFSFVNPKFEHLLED
Description: as §1

kinases of Table 5 [6] = target: T2, kinases of Table 5 (Homo sapiens, UniProt P54762); conditions: for Inhibition Results (Level): kinase EPHB1 (Part II, plate B8, Domain 1)
T2 sequence (P54762 18-984): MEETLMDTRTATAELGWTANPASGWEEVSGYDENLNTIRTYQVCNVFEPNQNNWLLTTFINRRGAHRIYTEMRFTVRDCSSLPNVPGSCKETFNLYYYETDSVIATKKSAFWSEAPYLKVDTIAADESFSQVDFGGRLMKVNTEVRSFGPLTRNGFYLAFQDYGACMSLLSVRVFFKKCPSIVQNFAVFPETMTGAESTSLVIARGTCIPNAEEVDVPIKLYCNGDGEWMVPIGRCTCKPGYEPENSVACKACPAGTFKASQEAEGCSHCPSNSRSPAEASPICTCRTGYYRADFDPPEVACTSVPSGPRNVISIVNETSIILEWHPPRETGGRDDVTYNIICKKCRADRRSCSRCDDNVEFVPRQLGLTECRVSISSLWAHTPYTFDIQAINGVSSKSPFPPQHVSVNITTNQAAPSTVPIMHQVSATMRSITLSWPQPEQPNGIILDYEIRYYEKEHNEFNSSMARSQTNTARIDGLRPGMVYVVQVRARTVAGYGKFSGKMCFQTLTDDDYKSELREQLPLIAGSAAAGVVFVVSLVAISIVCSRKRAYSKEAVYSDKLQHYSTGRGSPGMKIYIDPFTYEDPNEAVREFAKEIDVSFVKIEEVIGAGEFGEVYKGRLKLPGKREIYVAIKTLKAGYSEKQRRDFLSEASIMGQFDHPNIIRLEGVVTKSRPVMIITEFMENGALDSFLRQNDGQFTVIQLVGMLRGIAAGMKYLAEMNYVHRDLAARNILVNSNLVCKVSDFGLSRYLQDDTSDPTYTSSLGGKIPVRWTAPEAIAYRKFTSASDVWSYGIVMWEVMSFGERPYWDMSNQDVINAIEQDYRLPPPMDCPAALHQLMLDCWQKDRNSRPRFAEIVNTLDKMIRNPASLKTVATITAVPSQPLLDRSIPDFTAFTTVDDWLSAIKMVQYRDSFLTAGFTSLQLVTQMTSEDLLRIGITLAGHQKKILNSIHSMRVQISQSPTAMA
Description: as §1

kinases of Table 5 [7] = target: kinases of Table 5 (Homo sapiens, UniProt O75716); conditions: kinase STK16 (Part I, plate C3, Domain 1)
Chain of kinases of Table 5 (Homo sapiens, UniProt O75716) (O75716 whole entry): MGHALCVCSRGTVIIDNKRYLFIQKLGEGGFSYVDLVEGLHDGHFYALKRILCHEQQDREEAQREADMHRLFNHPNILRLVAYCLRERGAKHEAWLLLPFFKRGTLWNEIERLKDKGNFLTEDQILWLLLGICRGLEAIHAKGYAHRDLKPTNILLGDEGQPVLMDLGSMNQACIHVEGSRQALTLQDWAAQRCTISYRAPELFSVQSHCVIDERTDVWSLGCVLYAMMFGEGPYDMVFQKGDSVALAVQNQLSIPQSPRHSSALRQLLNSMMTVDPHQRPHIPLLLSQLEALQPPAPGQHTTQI
Description: as §1

[8] = kinase FYN (Part I, plate A4, Domain 0), inhibitor 100 uM
[9] = kinase CSNK2A1, inhibitor 100 uM
[10] = kinase CSNK2A1, concentration not given
[11] = kinase EPHB1, concentration not given

Chain of kinases of Table 5 (Homo sapiens, UniProt P06241) (P06241 whole entry): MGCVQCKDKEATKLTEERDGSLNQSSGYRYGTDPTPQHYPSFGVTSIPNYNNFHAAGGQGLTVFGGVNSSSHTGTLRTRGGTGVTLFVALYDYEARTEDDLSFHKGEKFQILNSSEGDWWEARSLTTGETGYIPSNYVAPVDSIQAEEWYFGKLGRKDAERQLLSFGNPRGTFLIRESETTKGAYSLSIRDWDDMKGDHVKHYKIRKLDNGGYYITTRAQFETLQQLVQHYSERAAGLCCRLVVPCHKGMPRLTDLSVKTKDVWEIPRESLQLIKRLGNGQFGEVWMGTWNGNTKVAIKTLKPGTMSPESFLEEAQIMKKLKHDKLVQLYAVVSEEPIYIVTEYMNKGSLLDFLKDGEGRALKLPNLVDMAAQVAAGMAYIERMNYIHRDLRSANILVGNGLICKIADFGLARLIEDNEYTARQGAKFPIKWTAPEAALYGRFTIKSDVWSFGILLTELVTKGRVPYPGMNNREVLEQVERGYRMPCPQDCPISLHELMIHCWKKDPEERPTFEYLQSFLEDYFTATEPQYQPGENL

Compound: N#C/C(=C/c1ccc(O)c(O)c1)C(=O)NCc1ccccc1 [AG 490]
- Inhibition Results (Level) (kinases of Table 5 [1]; [8]): 2
- Inhibition level (kinases of Table 5 [2]; [9]): 2
- Inhibition level (kinases of Table 5 [3]; inhibitor 100 uM): 2
- Inhibition Results (Level) (kinases of Table 5 [4]; inhibitor 100 uM): 0
- Inhibition level (kinases of Table 5 [5]; inhibitor 100 uM): 0
- Inhibition level (kinases of Table 5 [6]; kinase EPHB1, inhibitor 100 uM): 0
- Inhibition Results (Level) (kinases of Table 5 [7]; inhibitor 100 uM): 0

Compound: COc1cc2ncnc(Nc3cccc(Cl)c3)c2cc1OC [AG 1478]
- Inhibition Results (Level) (kinases of Table 5 [1]; [8]): 2
- Inhibition level (kinases of Table 5 [2]; [9]): 2
- Inhibition level (kinases of Table 5 [3]; inhibitor 100 uM): 2
- Inhibition Results (Level) (kinases of Table 5 [4]; inhibitor 100 uM): 0
- Inhibition level (kinases of Table 5 [5]; inhibitor 100 uM): 0
- Inhibition level (kinases of Table 5 [6]; kinase EPHB1, inhibitor 100 uM): 2
- Inhibition Results (Level) (kinases of Table 5 [7]; inhibitor 100 uM): 0

Compound: O=c1c(-c2ccc(O)cc2)coc2cc(O)cc(O)c12 [Genistein]
- Inhibition Results (Level) (kinases of Table 5 [1]; [8]): 2
- Inhibition Results (Level) (kinases of Table 5 [1]; kinase FYN (Part I, plate A4, Domain 0), inhibitor <3.7 mM): 1
- Inhibition level (kinases of Table 5 [2]; [10]): 0
- Inhibition level (kinases of Table 5 [2]; [9]): 2
- Inhibition level (kinases of Table 5 [3]; concentration not given): 0
- Inhibition level (kinases of Table 5 [3]; inhibitor 100 uM): 2
- Inhibition Results (Level) (kinases of Table 5 [4]; inhibitor 100 uM): 1
- Inhibition Results (Level) (kinases of Table 5 [4]; inhibitor <3.7 mM): 0
- Inhibition level (kinases of Table 5 [5]; concentration not given): 0
- Inhibition level (kinases of Table 5 [5]; inhibitor 100 uM): 0
- Inhibition level (kinases of Table 5 [6]; [11]): 0
- Inhibition level (kinases of Table 5 [6]; kinase EPHB1, inhibitor 100 uM): 1
- Inhibition Results (Level) (kinases of Table 5 [7]; inhibitor 100 uM): 0
- Inhibition Results (Level) (kinases of Table 5 [7]; inhibitor <3.7 mM): 0

Compound: O=S(=O)(NCCNC/C=C/c1ccc(Br)cc1)c1cccc2cnccc12 [H-89]
- Inhibition Results (Level) (kinases of Table 5 [1]; [8]): 2
- Inhibition Results (Level) (kinases of Table 5 [2]; inhibitor 100 uM): 0
- Inhibition Results (Level) (kinases of Table 5 [3]; inhibitor 100 uM): 0
- Inhibition Results (Level) (kinases of Table 5 [4]; inhibitor 100 uM): 2
- Inhibition Results (Level) (kinases of Table 5 [5]; inhibitor 100 uM): 1
- Inhibition Results (Level) (kinases of Table 5 [6]; inhibitor 100 uM): 1
- Inhibition Results (Level) (kinases of Table 5 [7]; inhibitor 100 uM): 2

Compound: CC(C)(C)n1nc(-c2ccc(Cl)cc2)c2c(N)ncnc21 [PP2]
- Inhibition level (kinases of Table 5 [2]; [9]): 2
- Inhibition level (kinases of Table 5 [3]; inhibitor 100 uM): 2
- Inhibition Results (Level) (kinases of Table 5 [4]; inhibitor 100 uM): 2
- Inhibition level (kinases of Table 5 [5]; inhibitor 100 uM): 0
- Inhibition level (kinases of Table 5 [6]; kinase EPHB1, inhibitor 100 uM): 2
- Inhibition Results (Level) (kinases of Table 5 [7]; inhibitor 100 uM): 2

Compound: O=c1c(O)c(-c2ccc(O)c(O)c2)oc2cc(O)cc(O)c12 [Quercetin]
- Inhibition Results (Level) (kinases of Table 5 [5]; inhibitor 100 uM): 0
- Inhibition Results (Level) (kinases of Table 5 [6]; inhibitor 100 uM): 0
- Inhibition Results (Level) (kinases of Table 5 [7]; inhibitor 100 uM): 0

Compound: Cn1cc(C2=C(c3cn(CCCSC(=N)N)c4ccccc34)C(=O)NC2=O)c2ccccc21 [Ro-31-8220]
- Inhibition Results (Level) (kinases of Table 5 [1]; kinase FYN (Part I, plate A4, Domain 0), inhibitor 90 uM): 0
- Inhibition Results (Level) (kinases of Table 5 [1]; [8]): 2
- Inhibition level (kinases of Table 5 [2]; [10]): 0
- Inhibition level (kinases of Table 5 [2]; [9]): 2
- Inhibition level (kinases of Table 5 [3]; concentration not given): 2
- Inhibition level (kinases of Table 5 [3]; inhibitor 100 uM): 0
- Inhibition Results (Level) (kinases of Table 5 [4]; inhibitor 90 uM): 2
- Inhibition Results (Level) (kinases of Table 5 [4]; inhibitor 100 uM): 2
- Inhibition level (kinases of Table 5 [5]; concentration not given): 2
- Inhibition level (kinases of Table 5 [5]; inhibitor 100 uM): 0
- Inhibition level (kinases of Table 5 [6]; [11]): 2
- Inhibition level (kinases of Table 5 [6]; kinase EPHB1, inhibitor 100 uM): 0
- Inhibition Results (Level) (kinases of Table 5 [7]; inhibitor 90 uM): 2
- Inhibition Results (Level) (kinases of Table 5 [7]; inhibitor 100 uM): 1

Compound: CC(=O)c1c(O)c(C)c(O)c(Cc2c(O)c3c(c(C(=O)/C=C/c4ccccc4)c2O)OC(C)(C)C=C3)c1O [Rottlerin (Mallotoxin)]
- Inhibition Results (Level) (kinases of Table 5 [1]; [8]): 2
- Inhibition Results (Level) (kinases of Table 5 [2]; inhibitor 100 uM): 2
- Inhibition Results (Level) (kinases of Table 5 [3]; inhibitor 100 uM): 0
- Inhibition Results (Level) (kinases of Table 5 [4]; inhibitor 100 uM): 2
- Inhibition Results (Level) (kinases of Table 5 [5]; inhibitor 100 uM): 0
- Inhibition Results (Level) (kinases of Table 5 [6]; inhibitor 100 uM): 1
- Inhibition Results (Level) (kinases of Table 5 [7]; inhibitor 100 uM): 0

Compound: CN[C@@H]1C[C@H]2O[C@@](C)([C@@H]1OC)n1c3ccccc3c3c4c(c5c6ccccc6n2c5c31)C(=O)NC4 [Staurosporine]
- Inhibition Results (Level) (kinases of Table 5 [1]): 2
- Inhibition level (kinases of Table 5 [2]): 2
- Inhibition level (kinases of Table 5 [6]): 2
- Inhibition Results (Level) (kinases of Table 5 [7]; inhibitor 21.5 uM): 2
